Experimental data as given in article PMC10999085, “Synthesis, anticancer evaluation, molecular docking and ADME study of novel pyrido[4ʹ,3ʹ:3,4]pyrazolo[1,5-a]pyrimidines as potential tropomyosin receptor kinase A (TrKA) inhibitors” (BMC Chemistry, 2024).
“Also recorded” adds a separate entry of the source.

Test system: HepG2 cells
Test: In-vitro cell cycle analysis (PI flow cytometry)
Format: cell-based, human
Settings: for Cell cycle comment (phase of arrest): HepG2; for DNA content %G0-G1 / DNA content %G2/M / DNA content %Pre-G1 / DNA content %S: HepG2, compound at its IC50; for increase of the proportion of cells in the G2/M phase: HepG2, versus control
Protocol: HepG-2 cells are pre-cultured in 25 cm^2 cell culture flask. RPMI-1640 medium was used. Tested compounds 7b, 9c, 15b, 16a and 16c were used in the cell treatment at their IC50 by dissolving them in the required medium separately. The procedure was discussed in details in the ESI.
For cell cycle analysis, stained DNA from HepG2 cancer cells was treated with compounds 7b, 15b, 16a and 16c that induce cancer cell death by inhibiting TrKA. From the results in Table 5, it can be seen that the proportion of cells at phase in the pre-G1 of compounds 7b, 15b, 16a and 16c increased the proportion of cells at phase in the G2/M by about 4, 4, 2.5 and 3 folds, respectively.
HepG-2 cells were pre-cultured in 25 cm^2 cell culture flasks; RPMI-1640 medium was used. Tested compounds 7b, 15b, 16a and 16c were dissolved separately in the required medium and used in the cell treatment at their IC50. After overnight treatment the cells were collected and fixed gently with 70% (v/v) ethanol in PBS, incubated overnight at 4 °C, and resuspended in PBS containing 40 µg/ml propidium iodide (PI), 0.1 mg/ml RNase and 0.1% (v/v) Triton X-100 in the dark room at after 30 min at 37 °C, the cell cycle analysis was performed using a flow cytometer, equipped with an argon ion laser at a wavelength of 488 nm (Becton-Dickinson, San Josa, CA, USA) and the percentage of cells at G1, S and G2/M was also calculated.

## COc1ccc(C=C2C(=O)NC(=O)c3c2nn2c(C)cc(C)nc32)cc1 [Compound 7b]
  Cell cycle comment (phase of arrest): arrested in the cell cycle at G2/M phase; also recorded: arrest in cell cycle at the G2/M phase; also recorded: cell growth arrest@G2/M
  DNA content %G0-G1: 38.42%
  DNA content %G2/M: 34.70%
  DNA content %Pre-G1: 24.89%
  DNA content %S: 26.88%
  increase of the proportion of cells in the G2/M phase: about 4 folds

## Cc1cc(O)n2nc3c(c2n1)C(=O)NC(=O)C3=NNc1ccccc1 [Compound 16a, 4-Hydroxy-2-methyl-7-(2-phenylhydrazono)pyrido[4ʹ,3ʹ:3,4]pyrazolo[1,5-a]pyrimid-ine-8,10(7H,9H)-dione]
  Cell cycle comment (phase of arrest): arrest in cell cycle at the G2/M phase; also recorded: cell growth arrest@G2/M
  DNA content %G0-G1: 42.11%
  DNA content %G2/M: 21.74%
  DNA content %Pre-G1: 15.33%
  DNA content %S: 36.15%
  increase of the proportion of cells in the G2/M phase: ~2.5 folds

## COc1ccc(NN=C2C(=O)NC(=O)c3c2nn2c(O)cc(C)nc32)cc1 [Compound 16c, 4-Hydroxy-7-(2-(4-methoxyphenyl)hydrazono)-2-methylpyrido[4ʹ,3ʹ:3,4]pyrazolo[1,5-a]pyrimidine-8,10(7H,9H)-dione]
  Cell cycle comment (phase of arrest): arrest in cell cycle at the G2/M phase; also recorded: cell growth arrest@G2/M
  DNA content %G0-G1: 41.61%
  DNA content %G2/M: 26.45%
  DNA content %Pre-G1: 12.07%
  DNA content %S: 31.94%
  increase of the proportion of cells in the G2/M phase: ~3 folds
